Where “and” joins values, the source holds several entries; their conditions need not be identical. Identical values can stand only once. No end group written: not given here.
System: arachidonic acid induced inflammation in mouse ear
Experiment: Mouse ear model, arachidonic acid (AA) induced inflammation, ear thickness
Type: in vivo
Details: for % Reduction of Ear Swelling / Ear Thickness: Table I, sc Alzet minipump
Experimental: The anti-inflammatory properties of CT-112 (SEQ. ID NO: 1) were assessed using a standardized assay for anti-inflammatory activity, i.e., the mouse ear model in which arachidonic acid (AA) is used to induce an inflammatory reaction (Young et al., 1984, J. Invest. Dermatol. 82:367-371; Doherty, et al., 1988, J. Invest. Dermatol. 91:298-302).
Female mice (C57BL/6UAF, Charles River Breeding Laboratories, approximately 15-18 g) were obtained and acclimated for 2 weeks prior to use. The animals were approximately 14 weeks old at the start of the study.
To prepare minipumps for implantation, CT-112 (SEQ. ID NO: 1) was dissolved in PBS. The material was loaded into Alzet minipumps set to deliver 0.05 (5 animals), 0.1 (10 animals), 1 (10 animals), or 2.5 (5 animals) mg of CT-112 (SEQ. ID NO: 1) per animal per day. Minipumps for implantation into control animals contained only PBS. As a positive control, one set of 10 mice received 100 mg/kg of phenidone, a potent 5-lipoxygenase inhibitor which acts as an anti-inflammatory agent, 15 min prior to challenge with AA.
For subcutaneous implantation of minipumps, animals were anesthetized with Ketamine/Xylazine. The Ketamine (Aveco Lot #440140) was injected at 80 mg/kg and the Xylazine (Rugby Laboratories Lot #26040-B) at 16 mg/kg and the Alzet pumps were implanted subcutaneously in the dorsothoracic area. Animals were allowed to recover and then housed and given food and water ad libitum for 5 days.
On the sixth day following pump implantation, 0.01 ml of AA was applied to the inner and outer surfaces of the right ear by means of an automatic microliter pipette. One hr following AA application, the mice were sacrificed and ear thickness was measured with a Mitutoyo No. 7300 Gauge Caliper. The left ears were also measured as an internal control.
Mice were implanted with Alzet mini-pumps set to deliver 60 mg/kg/day for either 7, 3, or 1 days. A separate group of 5 mice received 3 intraperitoneal injections of CT-112 (60 mg/kg/injection) at 24, 1 and 0.25 hr prior to AA challenge. CT-112 (SEQ. ID NO: 1) was prepared for injection by dissolving the compound in Dulbecco's PBS to give a final CT-112 (SEQ. ID NO: 1) concentration of 5 mg/ml. The control mice were implanted with Alzet minipumps that delivered PBS for 7 days. The AA challenge was the same as described supra in Example 7.
Administration of CT-112 (SEQ. ID NO: 1) (60 mg/kg/injection) via multiple intraperitoneal injections was performed at the following times prior to AA challenge:
In addition, the effect of a single administration of CT-112 (SEQ. ID NO: 1) (60 mg/kg) by intraperitoneal injection was performed at either 1 or 3 hr prior to AA challenge. Control mice had Alzet minipumps implanted to deliver PBS for 7 days prior to AA challenge. The AA challenge was the same as described supra in Example 7. The results of the multiple dosing regimens and the 1 hr and 3 hr single dosing regimens were compared to the anti-inflammatory activity of CT-112 (SEQ. ID NO: 1) delivered via Alzet minipump set to deliver 60 mg/kg/day for 7 days using 5 animals per treatment.
In a separate experiment, the effect of multiple intraperitoneal injections of CT-112 (SEQ. ID NO: 1) at either 6, 3, 1 and 0.25 hr, or 16, 3, 1 and 0.25 hr prior to AA challenge was assessed. The results of both multi-dosing regimens were compared to both phenidone (100 mg/kg administered 15 min prior to AA challenge) and CT-112 (SEQ. ID NO: 1) administered via Alzet mini-pump (60 mg/kg/day for 7 days). For this latter study, the number of animals receiving the single injection of CT-112 (SEQ. ID NO: 1) was increased from 5 to 10.
Administration to mice of CT-112 (SEQ. ID NO: 1) (60 mg/kg/injection) via multiple subcutaneous injections prior to AA challenge was performed at:
In addition, other mice received only a single subcutaneous injection of CT-112 (SEQ. ID NO: 1) (60 mg/kg) at either 3 or 1 hr prior to AA challenge. […]

[1] = Table III, 1-day pump, 60 mg/kg/day
[2] = Table III, 3-day pump, 60 mg/kg/day
[3] = Table III, 7-day pump, 60 mg/kg/day
[4] = Table III, ip 60 mg/kg/injection at 24, 1, 0.25 hr prior to AA
[5] = Table IV, 7-day pump, 60 mg/kg/day
[6] = Table IV, ip 60 mg/kg/injection at 1, 0.25 hr prior to AA
[7] = Table IV, ip 60 mg/kg/injection at 3, 1, 0.25 hr prior to AA
[8] = Table IV, ip 60 mg/kg/injection at 6, 3, 1, 0.25 hr prior to AA
[9] = Table IV, single ip 60 mg/kg 3 hr prior to AA
[10] = Table V, 7-day pump, 60 mg/kg/day
[11] = Table V, ip at 6, 3, 1, 0.25 hr prior to AA
[12] = Table V, ip at 16, 3, 1, 0.25 hr prior to AA
[13] = Table VI, 7-day pump, 60 mg/kg/day
[14] = Table VI, sc 60 mg/kg/injection at 1, 0.25 hr prior to AA
[15] = Table VI, sc 60 mg/kg/injection at 3, 1, 0.25 hr prior to AA
[16] = Table VI, sc 60 mg/kg/injection at 6, 3, 1, 0.25 hr prior to AA
[17] = Table VI, single sc 60 mg/kg 1 hr prior to AA
[18] = Table VI, single sc 60 mg/kg 3 hr prior to AA
[19] = Table VII, 3 day pump, 60 mg/kg/day
[20] = Table VII, single ip 3 hr prior to AA
[21] = Table VII, single sc 0.25 hr prior to AA
[22] = Table VII, single sc 1 hr prior to AA
[23] = Table VII, single sc 3 hr prior to AA
[24] = Table VII, single sc 6 hr prior to AA
[25] = Table VIII, 3 day pump, 60 mg/kg/day
[26] = Table VIII, po 200 mg/kg/gavage at 1, 0.25 hr prior to AA
[27] = Table VIII, po 200 mg/kg/gavage at 6, 3, 1, 0.25 hr prior to AA
[28] = Table VIII, single po 200 mg/kg 1 hr prior to AA
[29] = Table VIII, single po 200 mg/kg 3 hr prior to AA
[30] = Table XI, 60 mg/kg/day minipump, 3 days

## TTSQVRPR [CT-112, octapeptide derived from platelet factor 4]
0.05 mg/animal/day
  % Reduction of Ear Swelling: 43.1%
0.05 mg/animal/day, AA on day 6
  Ear Thickness: 0.01577 ± 0.00155 in
0.1 mg/animal/day
  % Reduction of Ear Swelling: 43.1%
  Ear Thickness: 0.01577 ± 0.00191 in
1.0 mg/animal/day
  % Reduction of Ear Swelling: 89.0%
  Ear Thickness: 0.01128 ± 0.00291 in
2.5 mg/animal/day
  % Reduction of Ear Swelling: 95.6%
  Ear Thickness: 0.0106 ± 0.00175 in
[1]
  % Inhibition of Inflammation: 112%
  Thickness Difference (Left-Right): -0.00074 ± 0.00119 in
[2]
  % Inhibition of Inflammation: 119%
  Thickness Difference (Left-Right): -0.00115 ± 0.00058 in
[3]
  % Inhibition of Inflammation: 108%
  Thickness Difference (Left-Right): -0.00051 ± 0.00116 in
[4]
  % Inhibition of Inflammation: 62%
  Thickness Difference (Left-Right): 0.00226 ± 0.00124 in
[5]
  % Inhibition of Inflammation: 94% and 93.9%
  Thickness Difference (Left-Right): 0.00033 ± 0.00065 in
[6]
  % Inhibition of Inflammation: 64.4%
  Thickness Difference (Left-Right): 0.00192 ± 0.00148 in
[7]
  % Inhibition of Inflammation: 73.8%
  Thickness Difference (Left-Right): 0.00141 ± 0.00138 in
[8]
  % Inhibition of Inflammation: 73.2%
  Thickness Difference (Left-Right): 0.00144 ± 0.00126 in
Table IV, single ip 60 mg/kg 1 hr prior to AA
  Thickness Difference (Left-Right): 0.00308 ± 0.00189 in
Table IV, single ip 60 mg/kg 1 hr prior to AA, 60 mg/kg
  % Inhibition of Inflammation: 43% and 42.9%
[9]
  % Inhibition of Inflammation: 78.5%
  Thickness Difference (Left-Right): 0.00116 ± 0.001 in
[10]
  % Inhibition of Inflammation: 100.5%
  Thickness Difference (Left-Right): -0.00003 ± 0.0012 in
[11]
  % Inhibition of Inflammation: 61.4%
  Thickness Difference (Left-Right): 0.00249 ± 0.0017 in
[12]
  % Inhibition of Inflammation: 56.3%
  Thickness Difference (Left-Right): 0.00283 ± 0.00218 in
[13]
  % Inhibition of Inflammation: 87% and 86.5%
  Thickness Difference (Left-Right): 0.00083 ± 0.00084 in
[14]
  % Inhibition of Inflammation: 68.4%
  Thickness Difference (Left-Right): 0.00195 ± 0.00131 in
[15]
  % Inhibition of Inflammation: 68.7%
  Thickness Difference (Left-Right): 0.00193 ± 0.0007 in
[16]
  % Inhibition of Inflammation: 76.2%
  Thickness Difference (Left-Right): 0.00147 ± 0.00041 in
[17]
  % Inhibition of Inflammation: 71.8%
  Thickness Difference (Left-Right): 0.00174 ± 0.00128 in
[18]
  % Inhibition of Inflammation: 65.5%
  Thickness Difference (Left-Right): 0.00213 ± 0.00089 in
[19]
  % Inhibition of Inflammation: 67.0%
  Thickness Difference (Left-Right): 0.00127 ± 0.00128 in
[20]
  % Inhibition of Inflammation: 37.2%
  Thickness Difference (Left-Right): 0.00242 ± 0.00187 in
[21]
  % Inhibition of Inflammation: 34.7%
  Thickness Difference (Left-Right): 0.00252 ± 0.00128 in
[22]
  % Inhibition of Inflammation: 44.5%
  Thickness Difference (Left-Right): 0.00214 ± 0.00122 in
[23]
  % Inhibition of Inflammation: 36.9%
  Thickness Difference (Left-Right): 0.00243 ± 0.00107 in
[24]
  % Inhibition of Inflammation: 69.6%
  Thickness Difference (Left-Right): 0.00117 ± 0.00066 in
[25]
  % Inhibition of Inflammation: 88% and 88.4%
  Thickness Difference (Left-Right): 0.00058 ± 0.00086 in
[26]
  % Inhibition of Inflammation: 51.9%
  Thickness Difference (Left-Right): 0.00241 ± 0.00124 in
Table VIII, po 200 mg/kg/gavage at 3, 1, 0.25 hr prior to AA
  Thickness Difference (Left-Right): 0.0028 ± 0.00114 in
Table VIII, po 200 mg/kg/gavage at 3, 1, 0.25 hr prior to AA, 200 mg/kg
  % Inhibition of Inflammation: 44% and 44.1%
[27]
  % Inhibition of Inflammation: 73.3%
  Thickness Difference (Left-Right): 0.00134 ± 0.00257 in
[28]
  % Inhibition of Inflammation: 72.3%
  Thickness Difference (Left-Right): 0.00139 ± 0.00122 in
[29]
  % Inhibition of Inflammation: 93.8%
  Thickness Difference (Left-Right): 0.00031 ± 0.00198 in
Table XI, 6 mg/kg/day minipump, 3 days
  % Inhibition of Inflammation: 40.8%
Table XI, 6 mg/kg/day minipump, AA 3 days after implantation
  Thickness Difference (Left-Right): 0.00381 ± 0.00066 in
[30]
  % Inhibition of Inflammation: 85.2%
  Thickness Difference (Left-Right): 0.00095 ± 0.00064 in
Table XIII, 60 mg/kg/day via Alzet pump for 24 hr
  Thickness Difference (Left-Right): 0.00132 ± 0.00086 in
Table XIV, 60 mg/kg/day via Alzet pump for 24 hr
  Thickness Difference (Left-Right): 0.00134 ± 0.00044 in
Table XV, 60 mg/kg/day via Alzet pump for 24 hr
  Thickness Difference (Left-Right): 0.00154 ± 0.00092 in
Table XVI, single 6 mg/kg sc 4 hr prior to AA, ear thickness 1 hr post-challenge
  % Inhibition: 64.9%
After single subcutaneous injection
  duration of activity: greater than 6 hr
Ip 60 mg/kg/injection, all multi-dosing regimens and the 3 hr single dosing regimen
  inhibition of the inflammatory process: approximately 70%
Multiple ip injections at either 6, 3, 1, 0.25 hr or 16, 3, 1, 0.25 hr prior to AA
  reduction in inflammation: 56-61%
Oral 200 mg/kg/gavage, all multi- and single-dosing regimens except 3, 1, 0.25 hr
  inhibition of the inflammatory process: 52-94%
